Experimental findings from ChEMBL document CHEMBL2010706, “Microfluidic technology: an economical and versatile approach for the synthesis of O-(2-[18F]fluoroethyl)-L-tyrosine ([18F]FET)” (Bioorg Med Chem Lett, 2012) are described below.

Data set [1] is described as follows: Drug uptake in mouse EMT6 tumor xenografted in Balb/c mouse after 30 mins by PET analysis. The settings on record: in vivo, 0.5 h. Type of data set: ADME, Neoplasm.
Data set [2] has as its system Muscle tissue. The data set can be described thus: Drug uptake in Balb/c mouse muscle after 30 to 60 mins by PET analysis. Format: ADME, tissue-based. The settings on record: in vivo.
Data set [3] is described as follows: Drug uptake in mouse EMT6 tumor xenografted in Balb/c mouse after 60 mins by PET analysis. Type of data set: ADME, Neoplasm. The settings on record: in vivo, 1 h.
Data set [4] is described as follows: Drug uptake in mouse EMT6 tumor xenografted in Balb/c mouse assessed per mg of protein after 15 mins by PET analysis. Type of data set: ADME, Neoplasm. Particulars: in vivo, 0.25 h; call rule not given here.
Data set [5] deals with Muscle tissue. The data set can be described thus: Drug uptake in Balb/c mouse muscle after 10 mins by PET analysis. Type of data set: ADME, tissue-based. Particulars: in vivo.
Data set [6] can be described thus: Drug uptake in mouse EMT6 tumor xenografted in Balb/c mouse assessed per mg of protein after 100 mins by PET analysis. Type of data set: ADME, Neoplasm. Particulars: in vivo.
Data set [7] relates to Nucleic Acid. The data set can be described thus: Ratio of drug uptake in tumor to muscle of Balb/c mouse after 60 mins […] by PET analysis. Format: ADME, nucleic-acid assay. Particulars: in vivo, 1 h.

On to `N[C@@H](Cc1ccc(OCC[18F])cc1)C(=O)O` [FLORETYROSINE F18], for which the values for the SUV in data set [1] and in data set [3] were 1.28 and 1.21, respectively. Moreover, the Drug uptake entry is reported as “Not Active” in data set [2], 105 %ID in data set [4], “Active” in data set [5] and 60 %ID in data set [6]. Also, the Ratio in data set [7] is listed as 4.04.
